pEC50, pKd: −log10 of the molar value. Read-outs that look alike come from different tables or passages of the source. Starred links: 1 amine or outer side, 2 acyl side, 3 side chain; linkers in the order of their positions; H or OH if unused. Positions of bridges follow the written chain, without caps; N, C: chain ends. Non-standard residues stand in square brackets, D forms with d. Residues, ends and D or L forms follow the SMILES beside them. ξ: configuration not given here. *: point of attachment. X1 = O=C(CCOCC(COCCC(=O)NCCOCCOCCOCCOCC1OCC(Nc2cncc(C(F)(F)F)n2)C(O)C1O)NCC(=O)*)NCCOCCOCCOCCOCC1OCC(Nc2cncc(C(F)(F)F)n2)C(O)C1O; ξPro(4ξ-NH2) = O=C(C1CC(N[*:3])CN1[*:1])[*:2]
Key:
ASGPR = biological target: T1, ASGPR (Homo sapiens, UniProt P07306); assay: ASGPR SPR binding
T1 construct: biotin (biotinylated)
T1 sequence (P07306 1-291): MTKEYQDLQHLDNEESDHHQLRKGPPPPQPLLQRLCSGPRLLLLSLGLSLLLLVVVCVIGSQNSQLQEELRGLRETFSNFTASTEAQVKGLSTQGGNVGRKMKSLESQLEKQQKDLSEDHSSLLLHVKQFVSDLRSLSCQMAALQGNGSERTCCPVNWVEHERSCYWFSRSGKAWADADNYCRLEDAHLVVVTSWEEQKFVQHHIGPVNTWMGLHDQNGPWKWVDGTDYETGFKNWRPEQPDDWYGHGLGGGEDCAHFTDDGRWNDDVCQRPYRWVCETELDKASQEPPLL

IgG = IgG SPR binding; conditions: second table, read-out: IgG KD
[1] = biological target: T2, ASGPR receptor on HepG2 cells (ternary complex with AF488-labeled antibody) (Homo sapiens, UniProt P07306); assay: Ternary complex formation assay (flow cytometry, cell-associated AF488 fluorescence); format: cell-based
T2 construct: host or cells: HepG2
T2 sequence (P07306 1-291): T1 sequence (P07306 1-291)
T2 sequence (P07307 1-311 partner): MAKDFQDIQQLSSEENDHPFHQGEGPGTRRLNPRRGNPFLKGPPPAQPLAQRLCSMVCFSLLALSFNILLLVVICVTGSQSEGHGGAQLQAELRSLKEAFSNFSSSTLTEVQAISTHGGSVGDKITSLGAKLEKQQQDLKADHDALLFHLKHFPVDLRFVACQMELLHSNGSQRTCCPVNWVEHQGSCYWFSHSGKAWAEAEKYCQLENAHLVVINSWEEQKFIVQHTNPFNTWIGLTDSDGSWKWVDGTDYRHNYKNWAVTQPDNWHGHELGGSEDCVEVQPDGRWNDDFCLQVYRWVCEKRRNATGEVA
Method: Human IgG (Sigma-Aldrich, 14506) was covalently labeled with Alexa Fluor 488 using the Alexa Fluor™ 488 Protein Labeling Kit (Thermo Fisher, A10235) following the manufacturer's instructions. HepG2 cells (ATCC, HB-8065) were cultured to about 70% confluence and harvested by trypsinization. Single cell suspensions of HepG2 cells were plated in 96 well plates at 1×10^5 cells/well in cell culture media (DMEM supplemented with 10% FBS) and placed at 4° C. For studies using human IgG, cells were incubated with 100 nM AF488-labeled anti-human IgG and serial dilutions of IgG-based degrader for 1 hour at 4° C. For studies using DNP, cells were incubated with 100 nM AF488-labeled polyclonal rabbit anti-dinitrophenyl (DNP) antibodies (ThermoFisher) and serial dilutions of DNP-based degrader for 1 hour at 4° C. After washing once with ice-cold PBS containing 0.1% BSA and 0.1% sodium azide, cells were resuspended in 150 uL PBS+0.1% BSA and cell-associated AF488 fluorescence was measured by flow cytometry using the iQue® Screener PLUS Flow Cytometer (IntelliCyt). […]

[2] = second table, read-out: ASGPR KD
[3] = read-out: TCF EC50, 100 nM AF488-labeled antibody, 1 hour at 4° C., the 25th table, class symbols
[4] = read-out: ASGPR KD, second table

pEC50 ([1]; 100 nM AF488-labeled antibody, 1 hour at 4° C., the 25th table, class symbols, read-out: TCF EC50) | Compound | pKd (ASGPR; [2]) | pKd (IgG) | pEC50 [1, 3] | pKd (ASGPR; [4]) | EC50 ([1]; read-out: TCF EC50, 100 nM AF488-labeled antibody, 1 hour at 4° C., the 25th table, numeric bounds, nM from footnote)
– | CC(C)CC1NC(=O)C(Cc2cnc[nH]2)NC(=O)C(Cc2c[nH]c3ccccc23)NC(=O)C(C)NC(=O)C2CSSCC(NC(=O)C(Cc3c[nH]c4ccccc34)NC(=O)C(C(C)C)NC(=O)C(CC(C)C)NC(=O)C(CCC(=O)O)NC(=O)CNC1=O)C(=O)NC(C(C)O)C(=O)N1CCCC1C(=O)N1CC(NC(=O)CCN3CCN(CC(=O)NCC4OCC(Nc5cncc(C(F)(F)F)n5)C(O)C4O)CC3)CC1C(=O)NC(CC(=O)O)C(=O)N2 (stereo not drawn) [compound 39] | > 7.00 | > 7.00 | > 7.00 | – | –
– | CC(C)CC1NC(=O)C(C)NC(=O)CNC(=O)C(CC(C)C)NC(=O)C(Cc2cnc[nH]2)NC(=O)C(Cc2c[nH]c3ccccc23)NC(=O)C(C)NC(=O)C2CSSCC(NC(=O)C(Cc3c[nH]c4ccccc34)NC(=O)C(C(C)C)NC1=O)C(=O)NC(C(C)O)C(=O)N1CCCC1C(=O)N1CC(NC(=O)CNC(COCCC(=O)NCCOCCOCCOCCOCC3OCC(Nc4cncc(C(F)(F)F)n4)C(O)C3O)COCCC(=O)NCCOCCOCCOCCOCC3OCC(Nc4cncc(C(F)(F)F)n4)C(O)C3O)CC1C(=O)NC(C)C(=O)N2 (stereo not drawn) [compound 71] (cyclo(GALVWCTP[ξPro(4ξ-NH2)](X1)ACAWHL); disulfide 6-11; configuration not given here) | – | > 7.00 | > 7.00 | > 7.00 | –
– | CC(C)CC1NC(=O)C(Cc2cnc[nH]2)NC(=O)C(Cc2c[nH]c3ccccc23)NC(=O)C(C)NC(=O)C2CSSCC(NC(=O)C(Cc3c[nH]c4ccccc34)NC(=O)C(C(C)C)NC(=O)C(CC(C)C)NC(=O)C(CCC(=O)O)NC(=O)CNC1=O)C(=O)NC(C(C)O)C(=O)N1CCCC1C(=O)N1CC(NC(=O)c3ccc(N4CCC(CN5CCN(CC6OCC(Nc7cncc(C(F)(F)F)n7)C(O)C6O)CC5)CC4)cc3)CC1C(=O)NC(CC(=O)O)C(=O)N2 (stereo not drawn) [compound 98] | – | > 7.00 | > 7.00 | – | –
– | CC(C)CC1NC(=O)C(C)NC(=O)CNC(=O)C(CC(C)C)NC(=O)C(Cc2cnc[nH]2)NC(=O)C(Cc2c[nH]c3ccccc23)NC(=O)C(C)NC(=O)C2CSSCC(NC(=O)C(Cc3c[nH]c4ccccc34)NC(=O)C(C(C)C)NC1=O)C(=O)NC(C(C)O)C(=O)N1CCCC1C(=O)N1CC(NC(=O)CNC(COCCC(=O)NCCOCCOCCOCCOCC3OCC(Nc4cncc(C(F)(F)F)n4)C(O)C3O)COCCC(=O)NCCOCCOCCOCCOCC3OCC(Nc4cncc(C(F)(F)F)n4)C(O)C3O)CC1C(=O)NC(CC(N)=O)C(=O)N2 (stereo not drawn) [compound 74] (cyclo(GALVWCTP[ξPro(4ξ-NH2)](X1)NCAWHL); disulfide 6-11; configuration not given here) | – | > 7.00 | > 7.00 | > 7.00 | –
> 7.00 | CC(C)CC1NC(=O)C(Cc2cnc[nH]2)NC(=O)C(Cc2c[nH]c3ccccc23)NC(=O)C(C)NC(=O)C2CSSCC(NC(=O)C(Cc3c[nH]c4ccccc34)NC(=O)C(C(C)C)NC(=O)C(CC(C)C)NC(=O)C(CCC(=O)O)NC(=O)CNC1=O)C(=O)NC(C(C)O)C(=O)N1CCCC1C(=O)N1CC(NC(=O)CCCc3cn(CC(=O)NC(COCCC(=O)NCCOCCOCCOCCOCC4OCC(Nc5cncc(C(F)(F)F)n5)C(O)C4O)COCCC(=O)NCCOCCOCCOCCOCC4OCC(Nc5cncc(C(F)(F)F)n5)C(O)C4O)nn3)CC1C(=O)NC(CC(=O)O)C(=O)N2 (stereo not drawn) [compound 77] | – | > 7.00 | – | – | –
– | CC(C)CC1NC(=O)C(Cc2cnc[nH]2)NC(=O)C(Cc2c[nH]c3ccccc23)NC(=O)C(C)NC(=O)C2CSSCC(NC(=O)C(Cc3c[nH]c4ccccc34)NC(=O)C(C(C)C)NC(=O)C(CC(C)C)NC(=O)C(CCC(=O)N(C)C)NC(=O)CNC1=O)C(=O)NC(C(C)O)C(=O)N1CCCC1C(=O)N1CC(NC(=O)CNC(COCCC(=O)NCCOCCOCCOCCOCC3OCC(Nc4cncc(C(F)(F)F)n4)C(O)C3O)COCCC(=O)NCCOCCOCCOCCOCC3OCC(Nc4cncc(C(F)(F)F)n4)C(O)C3O)CC1C(=O)NC(C)C(=O)N2 (stereo not drawn) [compound 72] (cyclo(GE(NMe2)LVWCTP[ξPro(4ξ-NH2)](X1)ACAWHL); disulfide 6-11; configuration not given here) | – | > 7.00 | > 7.00 | > 7.00 | –
– | CC(C)CC1NC(=O)C(Cc2cnc[nH]2)NC(=O)C(Cc2c[nH]c3ccccc23)NC(=O)C(C)NC(=O)C2CSSCC(NC(=O)C(Cc3c[nH]c4ccccc34)NC(=O)C(C(C)C)NC(=O)C(CC(C)C)NC(=O)C(CCC(=O)O)NC(=O)CNC1=O)C(=O)NC(C(C)O)C(=O)N1CCCC1C(=O)N1CC(NC(=O)CC(=O)NCC3OCC(Nc4cncc(C(F)(F)F)n4)C(O)C3O)CC1C(=O)NC(CC(=O)O)C(=O)N2 (stereo not drawn) [compound 38] | > 7.00 | > 7.00 | > 7.00 | – | –
– | CC(C)CC1NC(=O)C(Cc2cnc[nH]2)NC(=O)C(Cc2c[nH]c3ccccc23)NC(=O)C(C)NC(=O)C2CSSCC(NC(=O)C(Cc3c[nH]c4ccccc34)NC(=O)C(C(C)C)NC(=O)C(CC(C)C)NC(=O)C(CCC(=O)O)NC(=O)CNC1=O)C(=O)NC(C(C)O)C(=O)N1CCCC1C(=O)N1CC(NC(=O)CNC(COCCC(=O)NCCOCCOCCOCCOCC3OCC(Nc4cncc(C(F)(F)F)n4)C(O)C3O)COCCC(=O)NCCOCCOCCOCCOCC3OCC(Nc4cncc(C(F)(F)F)n4)C(O)C3O)CC1C(=O)NC(CC(=O)O)C(=O)N2 (stereo not drawn) [compound 46] | – | > 7.00 | > 7.00 | > 7.00 | –
– | CC(C)CC1NC(=O)C(Cc2cnc[nH]2)NC(=O)C(Cc2c[nH]c3ccccc23)NC(=O)C(C)NC(=O)C2CSSCC(NC(=O)C(Cc3c[nH]c4ccccc34)NC(=O)C(C(C)C)NC(=O)C(CC(C)C)NC(=O)C(CCC(=O)O)NC(=O)CNC1=O)C(=O)NC(C(C)O)C(=O)N1CCCC1C(=O)N1CC(NC(=O)COCCOCC(=O)NCC3OCC(Nc4cncc(C(F)(F)F)n4)C(O)C3O)CC1C(=O)NC(CC(=O)O)C(=O)N2 (stereo not drawn) [compound 50] | > 7.00 | > 7.00 | > 7.00 | – | –
– | CC(C)CC1NC(=O)C(Cc2cnc[nH]2)NC(=O)C(Cc2c[nH]c3ccccc23)NC(=O)C(C)NC(=O)C2CSSCC(NC(=O)C(Cc3c[nH]c4ccccc34)NC(=O)C(C(C)C)NC(=O)C(CC(C)C)NC(=O)C(CCC(=O)O)NC(=O)CNC1=O)C(=O)NC(C(C)O)C(=O)N1CCCC1C(=O)N1CC(NC(=O)CCCc3cn(CC45COC(O4)C(NC(=O)C(F)(F)F)C(O)C5O)nn3)CC1C(=O)NC(CC(=O)O)C(=O)N2 (stereo not drawn) [compound 104] | – | > 7.00 | – | – | > 10000 nM
– | CC(C)CC1NC(=O)C(Cc2cnc[nH]2)NC(=O)C(Cc2c[nH]c3ccccc23)NC(=O)C(C)NC(=O)C2CSSCC(NC(=O)C(Cc3c[nH]c4ccccc34)NC(=O)C(C(C)C)NC(=O)C(CC(C)C)NC(=O)C(CCC(=O)N(C)C)NC(=O)CNC1=O)C(=O)NC(C(C)O)C(=O)N1CCCC1C(=O)N1CC(NC(=O)CNC(COCCC(=O)NCCOCCOCCOCCOCC3OCC(Nc4cncc(C(F)(F)F)n4)C(O)C3O)COCCC(=O)NCCOCCOCCOCCOCC3OCC(Nc4cncc(C(F)(F)F)n4)C(O)C3O)CC1C(=O)NC(CC(N)=O)C(=O)N2 (stereo not drawn) [compound 73] (cyclo(GE(NMe2)LVWCTP[ξPro(4ξ-NH2)](X1)NCAWHL); disulfide 6-11; configuration not given here) | – | > 7.00 | > 7.00 | > 7.00 | –
– | CNC(=O)CCC1NC(=O)CNC(=O)C(CC(C)C)NC(=O)C(Cc2cnc[nH]2)NC(=O)C(Cc2c[nH]c3ccccc23)NC(=O)C(C)NC(=O)C2CSSCC(NC(=O)C(Cc3c[nH]c4ccccc34)NC(=O)C(C(C)C)NC(=O)C(CC(C)C)NC1=O)C(=O)NC(C(C)O)C(=O)N1CCCC1C(=O)N1CC(N)CC1C(=O)NC(CC(=O)O)C(=O)N2 (stereo not drawn) [compound 64] | > 7.00 | – | – | – | –
– | COC1OC(Cn2cc(CCCC(=O)NC3CC4C(=O)NC(CC(=O)O)C(=O)NC5CSSCC(NC(=O)C(Cc6c[nH]c7ccccc67)NC(=O)C(C(C)C)NC(=O)C(CC(C)C)NC(=O)C(CCC(=O)O)NC(=O)CNC(=O)C(CC(C)C)NC(=O)C(Cc6cnc[nH]6)NC(=O)C(Cc6c[nH]c7ccccc67)NC(=O)C(C)NC5=O)C(=O)NC(C(C)O)C(=O)N5CCCC5C(=O)N4C3)nn2)C(O)C(O)C1NC(C)=O (stereo not drawn) [compound 79] | < 6.00 | > 7.00 | – | – | –

— patent publication US20260083851A1 (AVILAR THERAPEUTICS, INC., priority 2022, published 2026)
